Reference: patent US20200354426A1 (MEDIMMUNE LIMITED, priority 2016, published 2020)
Numbered stars: 1 amine (or outer) side, 2 acyl side, 3 side chain; on linkers, the order of the positions; unused ones are H or OH. Side chains are listed from the residue outwards. Peptide text beside a SMILES is read from it. * marks the point of attachment. γGlu = O=C(O)[C@H](CCC(=O)[*:2])N[*:1]; Palmitoyl = CCCCCCCCCCCCCCCC(=O)*; Ahx = NCCCCCC(=O)O

Legend:
Experiment in all cases: cAMP activity assay in assay medium (assay 1)
Format in all cases: cell-based
Human GLP1R = Human GLP1R (Homo sapiens, UniProt P43220); parameters: expressed in transfected cells; conditions: assay medium; Table 4; read-out: hGLP1R EC50
Human GLP1R, sequence (P43220 24-463): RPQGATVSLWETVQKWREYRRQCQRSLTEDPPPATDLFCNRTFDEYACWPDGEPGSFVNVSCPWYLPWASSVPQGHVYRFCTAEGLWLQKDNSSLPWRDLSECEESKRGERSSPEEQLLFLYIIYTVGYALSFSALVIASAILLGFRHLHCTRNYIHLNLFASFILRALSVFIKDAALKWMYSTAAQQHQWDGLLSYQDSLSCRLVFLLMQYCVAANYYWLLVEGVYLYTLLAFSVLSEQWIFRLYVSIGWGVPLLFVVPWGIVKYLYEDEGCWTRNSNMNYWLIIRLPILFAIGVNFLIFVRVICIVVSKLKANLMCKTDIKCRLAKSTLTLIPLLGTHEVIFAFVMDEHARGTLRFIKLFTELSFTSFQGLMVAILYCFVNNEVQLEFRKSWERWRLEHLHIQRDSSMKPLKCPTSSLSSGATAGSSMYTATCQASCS
Description: (§1) Biological Activity of Peptides in Cell-Based cAMP Activity Assay (Assay 1):
(§2) All sample dilutions were made in duplicate.

Human GIPr = target: T1, Human GIPr (Homo sapiens, UniProt P48546); conditions: assay medium; Table 4; read-out: hGIPR EC50
T1 construct: expressed in transfected cells
T1 sequence (P48546 22-466): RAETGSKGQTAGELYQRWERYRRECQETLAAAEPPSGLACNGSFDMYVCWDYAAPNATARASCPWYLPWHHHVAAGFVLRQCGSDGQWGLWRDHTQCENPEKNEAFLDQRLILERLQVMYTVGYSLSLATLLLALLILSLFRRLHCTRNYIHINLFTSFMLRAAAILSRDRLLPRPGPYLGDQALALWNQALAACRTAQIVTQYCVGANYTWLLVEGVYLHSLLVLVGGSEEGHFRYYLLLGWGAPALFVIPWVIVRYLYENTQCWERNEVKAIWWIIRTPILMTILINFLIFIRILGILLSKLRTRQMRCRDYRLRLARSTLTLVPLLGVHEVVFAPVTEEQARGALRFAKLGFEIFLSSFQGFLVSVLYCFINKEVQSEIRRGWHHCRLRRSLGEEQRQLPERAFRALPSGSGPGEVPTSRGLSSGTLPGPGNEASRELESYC
Description: as §1, §2

Human GlucR = target: T2, Human GlucR (Homo sapiens, UniProt P47871); conditions: assay medium; Table 4; read-out: hGlucR EC50
T2 construct: expressed in transfected cells
T2 sequence (P47871 26-477): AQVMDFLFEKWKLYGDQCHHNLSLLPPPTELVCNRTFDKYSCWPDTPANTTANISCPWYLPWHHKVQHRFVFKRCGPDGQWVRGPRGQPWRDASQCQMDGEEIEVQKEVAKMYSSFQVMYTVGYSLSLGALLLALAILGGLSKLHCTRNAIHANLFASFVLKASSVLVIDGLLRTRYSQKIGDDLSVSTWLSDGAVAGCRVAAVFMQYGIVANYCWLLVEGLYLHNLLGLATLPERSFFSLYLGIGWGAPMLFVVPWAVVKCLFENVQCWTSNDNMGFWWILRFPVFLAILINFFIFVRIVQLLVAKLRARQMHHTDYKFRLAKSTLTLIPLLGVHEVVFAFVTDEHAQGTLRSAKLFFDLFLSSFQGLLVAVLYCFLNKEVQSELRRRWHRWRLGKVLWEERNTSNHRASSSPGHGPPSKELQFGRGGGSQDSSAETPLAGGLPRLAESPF
Description: as §1, §2

SMILES	EC50 (Human GLP1R) [nM]	EC50 (Human GIPr) [nM]	EC50 (Human GlucR) [nM]
CCCCCCCCCCCCCCCC(=O)NCCCCCC(=O)NCCCC[C@H](NC(=O)[C@H](CCC(N)=O)NC(=O)[C@H](C)NC(=O)[C@H](C)NC(=O)[C@H](CCCNC(=N)N)NC(=O)[C@H](CO)NC(=O)[C@H](CC(=O)O)NC(=O)[C@H](CC(C)C)NC(=O)[C@H](Cc1ccc(O)cc1)NC(=O)[C@H](CCCCN)NC(=O)[C@H](CO)NC(=O)[C@H](Cc1ccc(O)cc1)NC(=O)[C@H](CC(=O)O)NC(=O)[C@H](CO)NC(=O)[C@@H](NC(=O)[C@H](Cc1ccccc1)NC(=O)[C@@H](NC(=O)CNC(=O)[C@H](CCC(N)=O)NC(=O)[C@H](CO)NC(=O)[C@@H](N)Cc1c[nH]cn1)[C@@H](C)O)[C@@H](C)O)C(=O)N[C@@H](Cc1ccccc1)C(=O)N[C@H](C(=O)N[C@@H](CCC(N)=O)C(=O)N[C@@H](Cc1c[nH]c2ccccc12)C(=O)N[C@@H](CC(C)C)C(=O)N[C@@H](CCC(=O)O)C(=O)N[C@@H](CCCNC(=N)N)C(=O)NCC(=O)NCC(N)=O)C(C)C [g806] (H-HSQGTFTSDYSKYLDSRAAQK([Ahx-Palmitoyl])FVQWLERGG-NH2; N-terminus assumed)	0.171	105	0.0099
CCCCCCCCCCCCCCCC(=O)N[C@@H](CCC(=O)NCCCC[C@H](NC(=O)[C@H](CO)NC(=O)[C@H](CC(=O)O)NC(=O)[C@H](CC(C)C)NC(=O)[C@H](Cc1ccc(O)cc1)NC(=O)[C@H](CCC(=O)O)NC(=O)[C@H](CO)NC(=O)[C@H](Cc1ccc(O)cc1)NC(=O)[C@H](CC(=O)O)NC(=O)[C@H](CO)NC(=O)[C@@H](NC(=O)[C@H](Cc1ccccc1)NC(=O)[C@@H](NC(=O)CNC(=O)[C@H](CCC(N)=O)NC(=O)CNC(=O)[C@@H](N)Cc1c[nH]cn1)[C@@H](C)O)[C@@H](C)O)C(=O)N[C@@H](CCCNC(=N)N)C(=O)N[C@@H](C)C(=O)N[C@@H](CCCNC(=N)N)C(=O)N[C@@H](CC(=O)O)C(=O)N[C@@H](Cc1ccccc1)C(=O)N[C@H](C(=O)N[C@@H](CCC(=O)O)C(=O)N[C@@H](Cc1c[nH]c2ccccc12)C(=O)N[C@@H](CC(C)C)C(=O)N[C@@H](CCC(=O)O)C(=O)N[C@@H](CCCNC(=N)N)C(=O)NCC(=O)NCC(N)=O)C(C)C)C(=O)O [g723]	0.33	761	8.95
CCCCCCCCCCCCCCCC(=O)N[C@@H](CCC(=O)NCCCC[C@H](NC(=O)[C@H](CO)NC(=O)[C@H](CC(=O)O)NC(=O)[C@H](CC(C)C)NC(=O)[C@H](Cc1ccc(O)cc1)NC(=O)[C@H](CCCCN)NC(=O)[C@H](CO)NC(=O)[C@H](Cc1ccc(O)cc1)NC(=O)[C@H](CC(=O)O)NC(=O)[C@H](CO)NC(=O)[C@@H](NC(=O)[C@H](Cc1ccccc1)NC(=O)[C@@H](NC(=O)CNC(=O)[C@H](CCC(N)=O)NC(=O)CNC(=O)[C@@H](N)Cc1c[nH]cn1)[C@@H](C)O)[C@@H](C)O)C(=O)N[C@@H](CCCNC(=N)N)C(=O)N[C@@H](C)C(=O)N[C@@H](CCC(=O)O)C(=O)N[C@@H](CC(=O)O)C(=O)N[C@@H](Cc1ccccc1)C(=O)N[C@H](C(=O)N[C@@H](CCC(N)=O)C(=O)N[C@@H](Cc1c[nH]c2ccccc12)C(=O)N[C@@H](CC(C)C)C(=O)N[C@H](C(=O)N[C@@H](C)C(=O)NCC(=O)NCC(N)=O)C(C)C)C(C)C)C(=O)O [g678] (H-HGQGTFTSDYSKYLDSK([γGlu-Palmitoyl])RAEDFVQWLVAGG-NH2; N-terminus assumed)	0.106	123	4.52
CCCCCCCCCCCCCCCC(=O)N[C@@H](CCC(=O)NCCCC[C@H](NC(=O)[C@H](CCC(=O)O)NC(=O)[C@H](CO)NC(=O)[C@H](Cc1ccc(O)cc1)NC(=O)[C@H](CC(=O)O)NC(=O)[C@H](CO)NC(=O)[C@@H](NC(=O)[C@H](Cc1ccccc1)NC(=O)[C@@H](NC(=O)CNC(=O)[C@H](CCC(N)=O)NC(=O)[C@H](CO)NC(=O)[C@@H](N)Cc1c[nH]cn1)[C@@H](C)O)[C@@H](C)O)C(=O)N[C@@H](CC(C)C)C(=O)N[C@@H](CC(=O)O)C(=O)N[C@@H](CO)C(=O)N[C@@H](CCC(=O)O)C(=O)N[C@@H](CCCNC(=N)N)C(=O)N[C@@H](C)C(=O)N[C@@H](CCCNC(=N)N)C(=O)N[C@@H](CC(=O)O)C(=O)N[C@@H](Cc1ccccc1)C(=O)N[C@H](C(=O)N[C@@H](C)C(=O)N[C@@H](Cc1c[nH]c2ccccc12)C(=O)N[C@@H](CC(C)C)C(=O)N[C@H](C(=O)N[C@@H](C)C(=O)NCC(=O)NCC(N)=O)C(C)C)C(C)C)C(=O)O [g802] (H-HSQGTFTSDYSEK([γGlu-Palmitoyl])LDSERARDFVAWLVAGG-NH2; N-terminus assumed)	0.0964	91.2	1.81

Further lines, results first:

EC50 (Human GLP1R) [nM]	EC50 (Human GIPr) [nM]	EC50 (Human GlucR) [nM]	SMILES
0.195	96.7	3.68	CCCCCCCCCCCCCCCC(=O)N[C@@H](CCC(=O)NCCCC[C@H](NC(=O)[C@H](CO)NC(=O)[C@H](CC(=O)O)NC(=O)[C@H](CC(C)C)NC(=O)[C@H](Cc1ccc(O)cc1)NC(=O)[C@H](CCCCN)NC(=O)[C@H](CO)NC(=O)[C@H](Cc1ccc(O)cc1)NC(=O)[C@H](CC(=O)O)NC(=O)[C@H](CO)NC(=O)[C@@H](NC(=O)[C@H](Cc1ccccc1)NC(=O)[C@@H](NC(=O)CNC(=O)[C@H](CCC(N)=O)NC(=O)CNC(=O)[C@@H](N)Cc1c[nH]cn1)[C@@H](C)O)[C@@H](C)O)C(=O)N[C@@H](CCCNC(=N)N)C(=O)N[C@@H](C)C(=O)N[C@@H](CCC(=O)O)C(=O)N[C@@H](CC(=O)O)C(=O)N[C@@H](Cc1ccccc1)C(=O)N[C@H](C(=O)N[C@@H](CCC(=O)O)C(=O)N[C@@H](Cc1c[nH]c2ccccc12)C(=O)N[C@@H](CC(C)C)C(=O)N[C@H](C(=O)N[C@@H](C)C(=O)NCC(=O)NCC(N)=O)C(C)C)C(C)C)C(=O)O [g680] (H-HGQGTFTSDYSKYLDSK([γGlu-Palmitoyl])RAEDFVEWLVAGG-NH2; N-terminus assumed)
0.0274	4.53	0.00124	CCCCCCCCCCCCCCCC(=O)N[C@@H](CCC(=O)NCCCC[C@H](NC(=O)[C@H](Cc1ccc(O)cc1)NC(=O)[C@H](CCCCN)NC(=O)[C@H](CO)NC(=O)[C@H](Cc1ccc(O)cc1)NC(=O)[C@H](CC(=O)O)NC(=O)[C@H](CO)NC(=O)[C@@H](NC(=O)[C@H](Cc1ccccc1)NC(=O)[C@@H](NC(=O)CNC(=O)[C@H](CCC(N)=O)NC(=O)[C@H](CO)NC(=O)[C@@H](N)Cc1c[nH]cn1)[C@@H](C)O)[C@@H](C)O)C(=O)N[C@@H](CC(=O)O)C(=O)N[C@@H](CO)C(=O)N[C@@H](CCC(=O)O)C(=O)N[C@@H](CCCNC(=N)N)C(=O)N[C@@H](C)C(=O)N[C@@H](CCCNC(=N)N)C(=O)N[C@@H](CC(=O)O)C(=O)N[C@@H](Cc1ccccc1)C(=O)N[C@H](C(=O)N[C@@H](C)C(=O)N[C@@H](Cc1c[nH]c2ccccc12)C(=O)N[C@@H](CC(C)C)C(=O)N[C@H](C(=O)N[C@@H](C)C(=O)NCC(=O)NCC(N)=O)C(C)C)C(C)C)C(=O)O [g777] (H-HSQGTFTSDYSKYK([γGlu-Palmitoyl])DSERARDFVAWLVAGG-NH2; N-terminus assumed)
0.0157	32.2	0.00469	CCCCCCCCCCCCCCCC(=O)NCCCCCC(=O)NCCCC[C@H](NC(=O)[C@H](CO)NC(=O)[C@H](CC(=O)O)NC(=O)[C@H](CC(C)C)NC(=O)[C@H](Cc1ccc(O)cc1)NC(=O)[C@H](CCC(=O)O)NC(=O)[C@H](CO)NC(=O)[C@H](Cc1ccc(O)cc1)NC(=O)[C@H](CC(=O)O)NC(=O)[C@H](CO)NC(=O)[C@@H](NC(=O)[C@H](Cc1ccccc1)NC(=O)[C@@H](NC(=O)CNC(=O)[C@H](CCC(N)=O)NC(=O)[C@H](CO)NC(=O)[C@@H](N)Cc1c[nH]cn1)[C@@H](C)O)[C@@H](C)O)C(=O)N[C@@H](CCCNC(=N)N)C(=O)N[C@@H](C)C(=O)N[C@@H](CCCNC(=N)N)C(=O)N[C@@H](CC(=O)O)C(=O)N[C@@H](Cc1ccccc1)C(=O)N[C@H](C(=O)N[C@@H](C)C(=O)N[C@@H](Cc1c[nH]c2ccccc12)C(=O)N[C@@H](CC(C)C)C(=O)N[C@@H](CCC(=O)O)C(=O)N[C@@H](CCCNC(=N)N)C(=O)NCC(=O)NCC(N)=O)C(C)C [g794] (H-HSQGTFTSDYSEYLDSK([Ahx-Palmitoyl])RARDFVAWLERGG-NH2; N-terminus assumed)
0.0316	20	0.0011	CCCCCCCCCCCCCCCC(=O)N[C@@H](CCC(=O)NCCCC[C@H](NC(=O)[C@H](Cc1ccc(O)cc1)NC(=O)[C@H](CCCCN)NC(=O)[C@H](CO)NC(=O)[C@H](Cc1ccc(O)cc1)NC(=O)[C@H](CC(=O)O)NC(=O)[C@H](CO)NC(=O)[C@@H](NC(=O)[C@H](Cc1ccccc1)NC(=O)[C@@H](NC(=O)CNC(=O)[C@H](CCC(N)=O)NC(=O)[C@H](CO)NC(=O)[C@@H](N)Cc1c[nH]cn1)[C@@H](C)O)[C@@H](C)O)C(=O)N[C@@H](CC(=O)O)C(=O)N[C@@H](CO)C(=O)N[C@@H](CCC(=O)O)C(=O)N[C@@H](CCCNC(=N)N)C(=O)N[C@@H](C)C(=O)N[C@@H](CCC(N)=O)C(=O)N[C@@H](CC(=O)O)C(=O)N[C@@H](Cc1ccccc1)C(=O)N[C@H](C(=O)N[C@@H](CCC(N)=O)C(=O)N[C@@H](Cc1c[nH]c2ccccc12)C(=O)N[C@@H](CC(C)C)C(=O)N[C@@H](CCC(=O)O)C(=O)N[C@@H](C)C(=O)NCC(=O)NCC(N)=O)C(C)C)C(=O)O [g816]
